Consider five molecules from patent publication US12655153B2, “Solid forms of a HBV core protein allosteric modifier” (Hoffmann-La Roche Inc., priority 2019, dated 2026).

Holding throughout (assay type): physicochemical
Series [1] in a line: Apparent solubility study in pH buffers (50 mM), 25° C., 24 hours, HPLC. The following applies: for Final pH: after 24 hours; for Solubility: 25° C. As for the experimental part: Apparent solubility was determined by suspending 5 mg of compound (I) in different bio-relevant media including pH buffers (50 mM). The suspensions were equilibrated at 25° C. for 24 hours. The suspensions were then filtered through a 0.22 μm PVDF filter into a 2-mL HPLC vial. The quantification of the filtrate was conducted by HPLC with reference to a standard solution.

Series [2] can be described thus: Apparent solubility in purified water, 25° C., 24 hours, HPLC, residue by XRPD. The settings on record: for Solubility / Final pH / XRPD of residue: purified water; for Solubility: 25° C., 24 hours; for Final pH / XRPD of residue: after 24 hours. As for the experimental part:
Apparent solubility in water was determined by suspending 5 mg of compound (I) in purified water. The suspensions were equilibrated at 25° C. for 24 hours. The suspensions were then filtered through a 0.22 μm PVDF filter into a 2-mL HPLC vial. The quantitation of the filtrate was conducted by HPLC with reference to a standard solution. The solids were analyzed by XRPD.

Series [3] in a line: Physical stability of solid forms (general statements, accelerated and long term stability testing). The following applies: conditions not stated. The source says: Developing novel forms of compound (I) with good processability or acceptable aqueous solubility is one of the objectives of current invention. Some novel solid forms enhance the developability of compound (I) fundamentally. The physical stability of drug substances is an integral part of the systematic approach to the stability evaluation of pharmaceuticals due to its potential impacts on drug chemical stability performance and safety. The greater the stability is, the longer the shelf life could be. Therefore, the accelerated and long term stability testing used in this invention could be used to predict shelf lives.

Series [4] can be described thus: Stability of solid forms, stability chamber 25° C. and 60%-RH, XRPD after 1 month. The settings on record: 25° C./60%-RH. As to the method:
20 mg of compound (I) in different solid forms were stored in a stability chamber with temperature and humidity controlled at 25° C. and 60%-RH. After 1 month, the samples were analyzed by XRPD to check their solid form and compared with their initial solid form.

Series [5] in a line: Stability of solid forms, stability chamber 40° C. and 75%-RH, XRPD after 1 month. The settings on record: 40° C./75%-RH. As for the experimental part:
40 mg of compound (I) in different solid forms were stored in a stability chamber with temperature and humidity controlled at 40° C. and 75%-RH, respectively. After 1 month, the samples were analyzed by XRPD to check their solid form and compared with their initial solid form.

[6] abbreviates: listed as Example 3, Form A of compound (I).
Setting [7] is: listed as Example 16, Form H of compound (I).
[8] abbreviates: listed as Example 1, Form D of compound (I).

Converted amounts (≈) assume the structure as drawn. “Also recorded” adds a separate entry of the source.

As usually defined, the solubility is the concentration that dissolves in the medium under given conditions. Broadly, the Solubility is the dissolved amount per volume that the medium holds. Turning to `CCOC(=O)C1=C(CN2CCN3C(=O)N(CC(C)(C)C(=O)O)C[C@@H]3C2)NC(c2nccs2)=N[C@H]1c1cccc(F)c1C` [Form A, 3-[(8aS)-7-[[(4S)-5-ethoxycarbonyl-4-(3-fluoro-2-methyl-phenyl)-2-thiazol-2-yl-1,4-dihydropyrimidin-6-yl]methyl]-3-oxo-5,6,8,8a-tetrahydro-1H-imidazo[1,5-a]pyrazin-2-yl]-2,2-dimethyl-propanoic acid], the solubility at 24 h in series [1] (pH 1 buffer (50 mM), 25 °C, pH 1, aqueous buffer, thermodynamic from solid, pH 1 buffer, 24 hours) was determined as 940 µg/mL (≈ 1570 µM). The “Final pH” value in series [1] (pH 1 buffer, listed as Example 3, Form A of compound (I)) was found to be 1.05; in series [1] (pH 3 buffer, listed as Example 3, Form A of compound (I)), 2.97; in series [1] (pH 5 buffer, listed as Example 3, Form A of compound (I)), 4.99; in series [1] (pH 7 buffer, listed as Example 3, Form A of compound (I)), 6.98; in series [1] (pH 9 buffer, listed as Example 3, Form A of compound (I)), 8.46; in series [2] (setting [6]), 6.97. Also, the Solubility was determined as 66 µg/mL (≈ 110 µM) in series [1] (pH 3 buffer, 24 hours, listed as Example 3, Form A of compound (I)); 4 µg/mL (≈ 6.68 µM) in series [1] (pH 5 buffer, 24 hours, listed as Example 3, Form A of compound (I)); 72 µg/mL (≈ 120 µM) in series [1] (pH 7 buffer, 24 hours, listed as Example 3, Form A of compound (I)); 4820 µg/mL (≈ 8050 µM) in series [1] (pH 9 buffer, 24 hours, listed as Example 3, Form A of compound (I)); 50 µg/mL (≈ 83.5 µM) in series [2] (setting [6]). The XRPD of residue entry in series [2] (setting [6]) was “Form A”.
In the case of `CCOC(=O)C1=C(CN2CCN3C(=O)N(CC(C)(C)C(=O)O)C[C@@H]3C2)NC(c2nccs2)=N[C@H]1c1cccc(F)c1C` [Form Q, 3-[(8aS)-7-[[(4S)-5-ethoxycarbonyl-4-(3-fluoro-2-methyl-phenyl)-2-thiazol-2-yl-1,4-dihydropyrimidin-6-yl]methyl]-3-oxo-5,6,8,8a-tetrahydro-1H-imidazo[1,5-a]pyrazin-2-yl]-2,2-dimethyl-propanoic acid], the Solubility is 1560 µg/mL in series [1] (pH 1 buffer, 24 hours, listed as Example 24, potassium salt Form Q of compound (I)); 3580 µg/mL in series [1] (pH 7 buffer, 24 hours, listed as Example 24, potassium salt Form Q of compound (I)); greater than 10000 µg/mL in series [1] (pH 9 buffer, 24 hours, listed as Example 24, potassium salt Form Q of compound (I)). Moreover, the “Final pH” value in series [1] (pH 1 buffer, listed as Example 24, potassium salt Form Q of compound (I)) was 1.1; in series [1] (pH 3 buffer, listed as Example 24, potassium salt Form Q of compound (I)), 3.49; in series [1] (pH 5 buffer, listed as Example 24, potassium salt Form Q of compound (I)), 5.17; in series [1] (pH 7 buffer, listed as Example 24, potassium salt Form Q of compound (I)) it was 6.97; in series [1] (pH 9 buffer, listed as Example 24, potassium salt Form Q of compound (I)), 8.71.
For the molecule `CCOC(=O)C1=C(CN2CCN3C(=O)N(CC(C)(C)C(=O)O)C[C@@H]3C2)NC(c2nccs2)=N[C@H]1c1cccc(F)c1C` [Form H, 3-[(8aS)-7-[[(4S)-5-ethoxycarbonyl-4-(3-fluoro-2-methyl-phenyl)-2-thiazol-2-yl-1,4-dihydropyrimidin-6-yl]methyl]-3-oxo-5,6,8,8a-tetrahydro-1H-imidazo[1,5-a]pyrazin-2-yl]-2,2-dimethyl-propanoic acid], in series [3], the “Physical / solid state stability” value is given as “improved stability compared with Form D; also recorded: acceptable solid state stability”. Besides, in series [4], the “Stability compared with Form D” value was “better stability than the original Form D”. In addition, the “Physical stability (solid form by XRPD)” value in series [4] (setting [7]) is recorded as “no solid form change”. The Solubility in series [1] (pH 1 buffer, 24 hours, listed as Example 16, Form H of compound (I)) is 1581 µg/mL (≈ 2640 µM); in series [1] (pH 3 buffer, 24 hours, listed as Example 16, Form H of compound (I)), 56 µg/mL (≈ 93.5 µM); in series [1] (pH 5 buffer, 24 hours, listed as Example 16, Form H of compound (I)), 6 µg/mL (≈ 10 µM); in series [1] (pH 7 buffer, 24 hours, listed as Example 16, Form H of compound (I)), 244 µg/mL (≈ 408 µM); in series [1] (pH 9 buffer, 24 hours, listed as Example 16, Form H of compound (I)), greater than 10000 µg/mL; in series [2] (setting [7]), 453 µg/mL (≈ 757 µM). Also, the “Final pH” value in series [1] (pH 1 buffer, listed as Example 16, Form H of compound (I)) is listed as 1.08; in series [1] (pH 3 buffer, listed as Example 16, Form H of compound (I)), 3.01; in series [1] (pH 5 buffer, listed as Example 16, Form H of compound (I)), 5.03; in series [1] (pH 7 buffer, listed as Example 16, Form H of compound (I)), 6.97; in series [1] (pH 9 buffer, listed as Example 16, Form H of compound (I)), 8.90; in series [2] (setting [7]) it was 7.35. In addition, the “Solubility compared with Form A” value in series [1] (pH7 and pH9) was “higher solubility than Form A at pH7 and pH9”. The XRPD of residue result in series [2] (setting [7]) is reported as “Form H”. Further, the “Water solubility compared with Form A” value in series [2] (water) was “unexpected higher water solubility than Form A; also recorded: significant higher water solubility than the anhydrate Form A”.
For the molecule `CCOC(=O)C1=C(CN2CCN3C(=O)N(CC(C)(C)C(=O)O)C[C@@H]3C2)NC(c2nccs2)=N[C@H]1c1cccc(F)c1C` [Form Amorphous, 3-[(8aS)-7-[[(4S)-5-ethoxycarbonyl-4-(3-fluoro-2-methyl-phenyl)-2-thiazol-2-yl-1,4-dihydropyrimidin-6-yl]methyl]-3-oxo-5,6,8,8a-tetrahydro-1H-imidazo[1,5-a]pyrazin-2-yl]-2,2-dimethyl-propanoic acid], the “Physical / solid state stability” value in series [3] is recorded as “significantly improved stability compared with Form D”.
As to `CCOC(=O)C1=C(CN2CCN3C(=O)N(CC(C)(C)C(=O)O)C[C@@H]3C2)NC(c2nccs2)=N[C@H]1c1cccc(F)c1C` [Form D, 3-[(8aS)-7-[[(4S)-5-ethoxycarbonyl-4-(3-fluoro-2-methyl-phenyl)-2-thiazol-2-yl-1,4-dihydropyrimidin-6-yl]methyl]-3-oxo-5,6,8,8a-tetrahydro-1H-imidazo[1,5-a]pyrazin-2-yl]-2,2-dimethyl-propanoic acid], the “Solid form stability compared with Form D” value in series [5] is given as “better solid form stability than the original Form D”. The “Physical stability (solid form by XRPD)” value in series [5] (setting [8]) and in series [4] (setting [8]) was “solid form change” throughout. Besides, the “Physical / solid state stability” value in series [3] is “physically unstable”.
